Assay results as given in patent US20190045783A1, “SUBSTITUTED IMIDAZOLYLCARBOXAMIDES AS PESTICIDES” (BAYER CROPSCIENCE AKTIENGESELLSCHAFT, priority 2016, published 2019).
One block for each molecule: values may come before it.

Legend:
[1] = log P by HPLC on reversed-phase column (C18), EEC directive 79/831 Annex V.A8; assay type: physicochemical; conditions: for logP [n]: pH 7.8
[2] = system: green peach aphid (Myzus persicae); assay: Myzus persicae spray test (bell pepper plants); assay type: in vivo; conditions: application rate 20 ppm, after 6 days, 100% = all aphids killed
Description: (§1) Myzus persicae—Spray Test
Solvent: 14 parts by weight of dimethylformamide
(§2) Emulsifier: alkylaryl polyglycol ether
If the addition of ammonium salts or/and penetrants is required, these are each added in a concentration of 1000 ppm to the formulation solution.
Bell pepper plants (Capsicum annuum) severely infested with the green peach aphid (Myzus persicae) are treated by spraying with the active compound formulation in the desired concentration.
After 6 days, the kill in % is determined. 100% means that all of the aphids have been killed; 0% means that none of the aphids have been killed.

[3] = system: green peach aphids (Myzus persicae); assay: Myzus persicae oral test; assay type: in vivo; conditions: application rate 20 ppm, after 5 days, oral, 100% = all aphids killed
Description: (§3) Solvent: 100 parts by weight of acetone
Subsequently, the plates are sealed with parafilm, which a mixed population of green peach aphids (Myzus persicae) within a second microtitre plate is able to puncture and imbibe the solution through it.
After 5 days, the efficacy in % is determined. 100% means that all the aphids have been killed; 0% means that no aphids have been killed.

[4] = system: green peach aphids (Myzus persicae); assay: Myzus persicae oral test (MYZUPE O), comparison with prior art; assay type: in vivo; conditions: Myzus persicae, po, 120 h, MYZUPE O, 5 dat, read-out: % efficacy
Description: Myzus persicae—Oral Test (MYZUPE O)
as §3
50 μl of the active compound preparation are transferred into microtitre plates and made up to a final volume of 200 μl with 150 μl of IPL41 insect medium (33%+15% sugar). Subsequently, the plates are sealed with parafilm, which a mixed population of green peach aphids (Myzus persicae) within a second microtitre plate is able to puncture and imbibe the solution through it.
After the desired period of time (dat), the efficacy in % is determined. 100% means that all the aphids have been killed; 0% means that no aphids have been killed.

[5] = system: green peach aphid (Myzus persicae); assay: Myzus persicae spray test (Chinese cabbage leaf discs); assay type: in vivo; conditions: application rate 500 g/ha, after 5-6 days, Chinese cabbage leaf discs; 100% = all aphids killed
Description: as §1
To produce a suitable active ingredient formulation, 1 part by weight of active ingredient is dissolved with the stated parts by weight of solvent and made up with water containing an emulsifier concentration of 1000 ppm until the desired concentration is attained. To produce further test concentrations, the formulation is diluted with emulsifier-containing water.
After 5-6 days, the efficacy in % is determined. 100% means that all the aphids have been killed; 0% means that no aphids have been killed.

[6] = system: engorged adult female cattle ticks (Boophilus microplus); assay: Boophilus microplus injection test; assay type: in vivo; conditions: 20 μg/animal, assessed after 7 days, 100% = no tick laid fertile eggs
Description: Boophilus microplus—Injection Test
Solvent: dimethyl sulphoxide
To produce a suitable preparation of active compound, 10 mg of active compound are mixed with 0.5 ml of solvent and the concentrate is diluted with solvent to the desired concentration.
1 μl of the active compound solution is injected into the abdomen of 5 engorged adult female cattle ticks (Boophilus microplus). The animals are transferred into dishes and kept in a climate-controlled room.
Efficacy is assessed after 7 days by laying of fertile eggs. Eggs which are not visibly fertile are stored in a climate-controlled cabinet until the larvae hatch after about 42 days. An efficacy of 100% means that none of the ticks has laid any fertile eggs; 0% means that all the eggs are fertile.

[7] = system: caterpillars of the armyworm (Spodoptera frugiperda); conditions: application rate 500 g/ha, after 7 days, maize leaf discs; 100% = all caterpillars killed
Description: Spodoptera Frugiperda—Spray Test
as §2
To produce further test concentrations, the formulation is diluted with emulsifier-containing water.
After 7 days, the efficacy in % is determined. 100% means that all the caterpillars have been killed; 0% means that no caterpillar has been killed.

[8] = system: larvae of the mustard beetle (Phaedon cochleariae); conditions: application rate 500 g/ha, after 7 days, Chinese cabbage leaf discs; 100% = all beetle larvae killed

chromatographic logP ([1]; reversed-phase HPLC column (C18), neutral range, pH 7.8, HPLC C18, 43° C., Table 1, read-out: logP [n]): 0.92
Structure (SMILES): CN(C(=O)c1cnc(C2OCCCO2)n1C)c1cccnc1 [I-1-006]
kill in % (efficacy) [2]: 98%
pest or weed control at 20 ppm ([3]; Myzus persicae, 120 h, read-out: efficacy in %): 100%
Emax at 0.8 ppm ([4]; 0.8 ppm): 100%
Emax at 4 ppm ([4]; 4 ppm): 100%

logP [n] [1]: 1.68
Structure (SMILES): CN(C(=O)c1cnc(/C=N/OCC(F)(F)F)n1C)c1cccnc1 [I-1-031]
efficacy in % [5]: 90%
efficacy in % [3]: 100%
efficacy (laying of fertile eggs) [6]: 80%

logP [n] [1]: 1.99
Structure (SMILES): CN(C(=O)c1cnc(/C=N/OC(C)(C)C)n1C)c1cccnc1 [I-1-037]
efficacy in % [5]: 100%
efficacy in % [3]: 100%
efficacy (laying of fertile eggs) [6]: 90%

Structure (SMILES): CCN(C(=O)c1cnc(C=O)n1C)c1cccnc1 [I-1-039]
logP [n] [1]: 0.97
efficacy in % [3]: 100%
efficacy in % [7]: 83%
efficacy in % [8]: 100%
